Measured values: ChEMBL document CHEMBL1152844, “Synthesis and anti-HIV studies of 2- and 3-adamantyl-substituted thiazolidin-4-ones” (Eur J Med Chem, 2009)
Calls of active or inactive are those of the source. The calls are words filed in the database; no cut-off is given here.

Tests used:
[1] = tested on: Feline coronavirus; assay: Antiviral activity against Feline coronavirus infected in crandel feline kidney cells; format: functional, organism-based
[2] = tested on: Influenza A virus; assay: Antiviral activity against Influenza virus type A H1N1 infected in MDCK cells; format: functional, organism-based
[3] = tested on: Punta Toro virus; assay: Antiviral activity against Punta Toro virus infected in african green monkey Vero cells; format: functional, organism-based
[4] = tested on: Human alphaherpesvirus 2; assay: Antiviral activity against Herpes simplex virus type 2 infected in HEL cells; format: functional, organism-based
[5] = tested on: Human immunodeficiency virus 2; assay: Antiviral activity against HIV2 ROD infected in human CEM cells assessed as inhibition of virus-induced cytopathicity after 4 days; format: functional, organism-based; conditions: Human immunodeficiency virus 2, ROD, CCRF-CEM, 96 h
[6] = tested on: Human immunodeficiency virus 1; assay: Antiviral activity against HIV1 3B infected in human CEM cells assessed as inhibition of virus-induced cytopathicity after 4 days; format: functional, organism-based; conditions: Human immunodeficiency virus 1, 3B, CCRF-CEM, 96 h
[7] = tested on: CCRF-CEM; assay: Cytotoxicity against HIV-infected human CEM cells; format: cell-based; conditions: ccrf-cem
[8] = tested on: Coxsackievirus B4; assay: Antiviral activity against Coxsackievirus B4 infected in human HeLa cells; format: functional, organism-based
[9] = tested on: Vesicular stomatitis virus; assay: Antiviral activity against Vesicular stomatitis virus infected in HEL cells; format: functional, organism-based
[10] = Selectivity index, ratio of CC50 for human CEM cells to EC50 for HIV1 3B; format: toxicity, cell-based, CCRF-CEM; conditions: read-out: Ratio CC50/EC50
[11] = tested on: Coxsackievirus B4; assay: Antiviral activity against Coxsackievirus B4 infected in african green monkey Vero cells; format: functional, organism-based
[12] = tested on: Sindbis virus; assay: Antiviral activity against Sindbis virus infected in african green monkey Vero cells; format: functional, organism-based
[13] = tested on: Vesicular stomatitis virus; assay: Antiviral activity against Vesicular stomatitis virus infected in human HeLa cells; format: functional, organism-based
[14] = tested on: Respiratory syncytial virus; assay: Antiviral activity against Respiratory syncytial virus infected in human HeLa cells; format: functional, organism-based
[15] = tested on: Mammalian orthoreovirus 1; assay: Antiviral activity against Reovirus 1 infected in african green monkey Vero cells; format: functional, organism-based
[16] = tested on: Influenza B virus; assay: Antiviral activity against Influenza virus type B infected in MDCK cells; format: functional, organism-based
[17] = tested on: Influenza A virus; assay: Antiviral activity against Influenza virus type A H3N2 infected in MDCK cells; format: functional, organism-based
[18] = tested on: Human respirovirus 3; assay: Antiviral activity against Parainfluenza virus type 3 infected in african green monkey Vero cells; format: functional, organism-based
[19] = tested on: Vaccinia virus; assay: Antiviral activity against Vaccinia virus infected in HEL cells; format: functional, organism-based; conditions: Orthopoxvirus vaccinia
[20] = tested on: Human alphaherpesvirus 1; assay: Antiviral activity against Herpes simplex virus type 1 infected in HEL cells; format: functional, organism-based

SMILES | Activity [1] | Activity [2] | Activity [3] | Activity [4] | EC50 [5] [µM] | EC50 [6] [µM] | CC50 [7] [µM] | Activity [8] | Activity [9] | selectivity ratio [10] | Activity [11] | Activity [12] | Activity [13] | Activity [14] | Activity [15] | Activity [16] | Activity [17] | Activity [18] | Activity [19] | Activity [20]
Cc1cc(C)nc(N2C(=O)CSC2C23CC4CC(CC(C4)C2)C3)n1 (stereo not given) | inactive | inactive | inactive | inactive | ≥ 58 | 0.67 | 122 | inactive | inactive | 182 | inactive | inactive | inactive | inactive | inactive | inactive | inactive | inactive | inactive | inactive
COc1cc(C2SCC(=O)N2CC23CC4CC(CC(C4)C2)C3)cc(OC)c1OC (stereo not given) | inactive | inactive | inactive | inactive | ≥ 10.9 | ≥ 10.9 | 18 | inactive | inactive | < 1.6 | inactive | inactive | inactive | inactive | inactive | inactive | inactive | inactive | inactive | inactive
Cc1ccnc(N2C(=O)CSC2CC23CC4CC(CC(C4)C2)C3)n1 (stereo not given) | inactive | inactive | inactive | inactive | 23.5 | ≥ 11.6 | 27.3 | inactive | inactive | < 2.3 | inactive | inactive | inactive | inactive | inactive | inactive | inactive | inactive | inactive | inactive
Cc1cc(Cl)nc(N2C(=O)CSC2CC23CC4CC(CC(C4)C2)C3)n1 (stereo not given) | inactive | inactive | inactive | inactive | ≥ 53 | > 53 | 102 | inactive | inactive | < 1.9 | inactive | inactive | inactive | inactive | inactive | inactive | inactive | inactive | inactive | inactive
Cc1cccc(N2C(=O)CSC2CC23CC4CC(CC(C4)C2)C3)n1 (stereo not given) | inactive | inactive | inactive | inactive | 21.9 | 17.8 | 35 | inactive | inactive | 1.9 | inactive | inactive | inactive | inactive | inactive | inactive | inactive | inactive | inactive | inactive
O=C1CSC(CC23CC4CC(CC(C4)C2)C3)N1CCN1CCCC1 (stereo not given) | inactive | inactive | inactive | inactive | ≥ 57 | 48.7 | 77 | inactive | inactive | 1.6 | inactive | inactive | inactive | inactive | inactive | inactive | inactive | inactive | inactive | inactive
COc1cc(C2SCC(=O)N2CCC23CC4CC(CC(C4)C2)C3)cc(OC)c1OC (stereo not given) | inactive | inactive | inactive | inactive | 6.5 | 7.8 | 11.3 | inactive | inactive | 1.4 | inactive | inactive | inactive | inactive | inactive | inactive | inactive | inactive | inactive | inactive
Cc1ccnc(N2C(=O)CSC2CC23CC4CC(CC(C4)C2)C3)c1 (stereo not given) | inactive | inactive | inactive | inactive | 21.9 | 18.1 | 29.3 | inactive | inactive | 1.6 | inactive | inactive | inactive | inactive | inactive | inactive | inactive | inactive | inactive | inactive
Cc1cc(C)nc(N2C(=O)CSC2CC23CC4CC(CC(C4)C2)C3)c1 (stereo not given) | inactive | inactive | inactive | inactive | ≥ 54 | > 54 | 115 | inactive | inactive | < 2 | inactive | inactive | inactive | inactive | inactive | inactive | inactive | inactive | inactive | inactive
Cc1cc(Cl)nc(N2C(=O)CSC2C23CC4CC(CC(C4)C2)C3)n1 (stereo not given) | inactive | inactive | inactive | inactive | 120 | ≥ 54.9 | > 275 | inactive | inactive | < 5 | inactive | inactive | inactive | inactive | inactive | inactive | inactive | inactive | inactive | inactive
